US20070054353A1, “Nuclear receptor transcriptional corepressor and uses thereof” (priority 2002, published 2007)

Experiments:
Type in all cases: cell-based
5×17 mer-tk promoter = test: GAL4-LCoR repression of 5×17 mer-tk promoter in COS-7 cells; conditions: TSA 3 μM
Protocol: (§1) All cell lines were cultured under the recommended conditions. COS-7 cells grown in […] in DMEM without phenol red, supplemented with 10% FBS were transfected in medium without serum with lipofectamine 2000 (Invitrogen, Burlington, Ont.) with 100 ng of nuclear receptor expression vectors as indicated, 200 ng of TIF-2 or TIF-2.1, as indicated, 250 ng of reporter plasmid, 250 ng of infemal control vector pCMV-βgal, and various concentrations of LCoR/pSG5 or LCoR-LSKAA/pSG5 expression vectors and pSG5 carrier. Medium was replaced 24 h after transfection by a medium containing charcoal-stripped serum and ligand (100 nM) and TSA (3 μM) for 18 h, as indicated. Cells were harvested in 200 […] of reporter lysis buffer (Promega).
(§2) COS-7 cells were cotransfected with expression vectors for ERα HEG0 (A and C) or GR (D) or PR (F) or VDR (H), ERE3-TATA-pXP2 (A and C), GRE5/pXP2 (D and F) or VDRE3tk/pXP2 (H) luciferase reporter vectors, pCMV-β-gal as internal control, and LCoR/pSG5 or LSKAA/pSG5 expression vectors as indicated. Cells were treated with 10^−7M of hormones (solid bars) or vehicle (open bars). Normalized luciferase activities (RLU) are the means±SEM from at least 3 experiments. […] Cells were transfected as in FIG. 5A with LCoR, TIF-2 or TIF2.1 as indicated. […]

VDR = target: T1, VDR (Homo sapiens, UniProt P11473); test: Transient transfection luciferase reporter, VDR transactivation in COS-7 cells; conditions: TSA 3 μM, COS-7 cells
T1 construct: expressed in transfected cells; host or cells: COS-7
T1 sequence (P11473 1-427): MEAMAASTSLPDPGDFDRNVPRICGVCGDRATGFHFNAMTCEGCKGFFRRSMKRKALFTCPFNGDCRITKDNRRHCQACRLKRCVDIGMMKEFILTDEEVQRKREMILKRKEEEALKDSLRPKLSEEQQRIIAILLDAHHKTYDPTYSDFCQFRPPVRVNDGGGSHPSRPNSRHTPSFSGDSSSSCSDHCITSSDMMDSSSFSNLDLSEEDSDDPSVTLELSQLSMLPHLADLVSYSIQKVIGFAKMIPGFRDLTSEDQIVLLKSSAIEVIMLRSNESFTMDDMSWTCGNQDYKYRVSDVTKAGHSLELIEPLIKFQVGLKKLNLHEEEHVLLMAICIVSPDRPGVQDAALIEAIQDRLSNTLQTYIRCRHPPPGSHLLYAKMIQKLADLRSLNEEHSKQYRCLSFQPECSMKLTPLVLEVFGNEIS
Protocol: as §1, §2

GR = target: T2, GR (Homo sapiens, UniProt P04150); test: Transient transfection luciferase reporter, GR transactivation in COS-7 cells; conditions: TSA 3 μM, COS-7 cells
T2 construct: expressed in transfected cells; host or cells: COS-7
T2 sequence (P04150 1-777): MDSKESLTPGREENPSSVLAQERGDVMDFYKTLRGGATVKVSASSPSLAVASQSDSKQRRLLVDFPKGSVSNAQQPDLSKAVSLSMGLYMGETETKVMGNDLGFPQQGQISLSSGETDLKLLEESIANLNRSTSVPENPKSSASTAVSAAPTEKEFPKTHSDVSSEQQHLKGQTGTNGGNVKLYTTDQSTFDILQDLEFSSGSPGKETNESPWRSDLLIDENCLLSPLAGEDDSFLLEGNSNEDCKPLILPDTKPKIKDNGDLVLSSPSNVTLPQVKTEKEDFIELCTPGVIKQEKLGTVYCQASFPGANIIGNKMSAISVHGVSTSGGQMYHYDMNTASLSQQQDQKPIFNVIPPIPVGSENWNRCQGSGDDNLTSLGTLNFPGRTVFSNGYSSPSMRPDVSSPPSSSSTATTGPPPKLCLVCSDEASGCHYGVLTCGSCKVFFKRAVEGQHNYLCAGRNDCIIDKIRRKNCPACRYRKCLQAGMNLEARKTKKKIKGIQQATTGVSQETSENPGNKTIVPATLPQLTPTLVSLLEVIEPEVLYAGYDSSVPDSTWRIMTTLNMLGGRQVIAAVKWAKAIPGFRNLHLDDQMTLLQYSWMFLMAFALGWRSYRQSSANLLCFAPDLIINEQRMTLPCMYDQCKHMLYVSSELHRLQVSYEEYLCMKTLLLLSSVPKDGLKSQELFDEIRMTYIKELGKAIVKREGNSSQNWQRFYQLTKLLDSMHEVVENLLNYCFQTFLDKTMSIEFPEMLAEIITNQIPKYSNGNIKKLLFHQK
Protocol: as §1, §2

PR = target: T3, PR (Homo sapiens, UniProt P06401); test: Transient transfection luciferase reporter, PR transactivation in COS-7 cells; conditions: TSA 3 μM, COS-7 cells
T3 construct: expressed in transfected cells; host or cells: COS-7
T3 sequence (P06401 1-933): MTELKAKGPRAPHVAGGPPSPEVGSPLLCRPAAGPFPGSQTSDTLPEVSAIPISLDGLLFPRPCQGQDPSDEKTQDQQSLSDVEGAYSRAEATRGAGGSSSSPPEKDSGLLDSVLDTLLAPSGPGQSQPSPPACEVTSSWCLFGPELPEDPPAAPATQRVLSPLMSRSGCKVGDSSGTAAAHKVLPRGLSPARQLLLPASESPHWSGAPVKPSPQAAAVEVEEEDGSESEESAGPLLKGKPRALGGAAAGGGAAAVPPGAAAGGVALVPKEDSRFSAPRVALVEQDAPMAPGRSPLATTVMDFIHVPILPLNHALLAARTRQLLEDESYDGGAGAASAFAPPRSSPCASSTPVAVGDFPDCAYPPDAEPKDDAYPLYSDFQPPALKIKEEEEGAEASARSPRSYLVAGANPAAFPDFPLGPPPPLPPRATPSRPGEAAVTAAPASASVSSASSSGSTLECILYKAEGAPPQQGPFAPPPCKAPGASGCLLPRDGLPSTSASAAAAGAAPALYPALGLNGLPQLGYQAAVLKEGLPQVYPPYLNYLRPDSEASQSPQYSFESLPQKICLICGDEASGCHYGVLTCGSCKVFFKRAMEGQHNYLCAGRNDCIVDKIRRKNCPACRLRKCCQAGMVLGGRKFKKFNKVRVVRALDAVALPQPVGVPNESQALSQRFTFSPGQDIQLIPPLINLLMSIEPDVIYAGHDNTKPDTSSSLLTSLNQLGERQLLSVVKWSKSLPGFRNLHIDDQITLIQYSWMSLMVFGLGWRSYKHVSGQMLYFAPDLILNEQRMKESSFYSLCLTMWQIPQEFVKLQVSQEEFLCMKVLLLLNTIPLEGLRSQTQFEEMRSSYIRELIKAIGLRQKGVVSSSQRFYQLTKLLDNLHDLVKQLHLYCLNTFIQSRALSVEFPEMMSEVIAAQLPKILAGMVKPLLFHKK
Protocol: as §1, §2

## CC(/C=C/C(=O)NO)=C\[C@@H](C)C(=O)c1ccc(N(C)C)cc1 [TSA, trichostatin A]
5×17 mer-tk promoter
  effect on repression by GAL-LCoR: little or no effect
VDR
  effect on LCoR repression of VDR function: little or no effect
GR
  effect on LCoR-dependent repression of GR function: completely abolished
PR
  effect on LCoR repression of PR function: little or no effect
